From US20240025858A1, “CANNABINOID DERIVATIVES AS […] ACTIVE COMPOUNDS AND METHOD OF PREPARATION THEREOF” (GW Research Limited, priority 2020, published 2024)

Key:
[1] = system: mouse model of generalised seizure; test: mini-MEST (maximal electroshock seizure threshold test, minimal sample sizes) in the mouse; conditions: for change in vivo at 50 mg/kg / change in vivo at 5 mg/kg: Mus musculus, ip, change in CC50; for change in vivo at 50 mg/kg: 0.5 h, read-out: % change from vehicle, 50 mg/kg i.p., 30 min post dose; for change in vivo at 5 mg/kg: 0.25 h, read-out: % change from vehicle, 5 mg/kg i.p., 15 min post dose
Procedure: In the MEST test the ability of a drug to alter the seizure threshold current required to induce hind limb tonic extensor convulsions is measured according to an “up and down” method of shock titration (Kimball et al., 1957).
The ability of a test compound to alter the stimulus intensity, expressed as current (mA), required to induce the presence of tonic hind limb extensor convulsions, is assessed in the MEST.
Naïve mice were acclimatised to the procedure room in their home cages for up to 7 days, with food and water available ad libitum.
All animals were weighed at the beginning of the study and randomly assigned to treatment groups based on a mean distribution of body weight across groups.
The first animal within a treatment group was given a shock at the expected or estimated CC50 current. For subsequent animals, the current was lowered or raised depending on the convulsions outcome from the preceding animal in log scale intervals.
Data generated from each treatment group were used to calculate the CC50 ±SEM values for the treatment group.
The test compounds used were 1, 2, 3, 4 and 5. Test compounds were administered at 5-50 mg/kg (i.p.) in a 1:2:17 ethanol:solutol:saline formulation.
The data for each treatment group were recorded as the number of +'s and 0's at each current level employed and this information is then used to calculate the CC50 value (current required for 50% of the animals to show seizure behaviour) ±standard error.
Test compound effects were also calculated as percentage change in CC50 from the vehicle control group.
The test compounds used were 12, 42 and 43. Test compounds were administered at 5-50 mg/kg (i.p.) in a 1:2:17 ethanol:solutol:saline formulation.
The test compounds used were 6, 13, 22, 26, 28, 33, 38 and 46. Test compounds were administered at 5-50 mg/kg (i.p.) in a 1:2:17 ethanol:solutol:saline formulation.
The test compound used was 36. Test compound was administered at 5 and 50 mg/kg (i.p.) in a 1:2:17 ethanol:solutol:saline formulation.

[2] = system: mouse model of generalised seizure; test: MEST (maximal electroshock seizure threshold) test in the mouse; conditions: for % change from vehicle: change in CC50
Procedure: The efficacy of the cannabinoid derivative of 1 was tested in a mouse model of generalised seizure, the maximal electroshock seizure threshold (MEST) test.
The protocol according to Example 2 was followed, with the current lowered or raised in intervals of 5 mA instead of log scale intervals.

[3] = 50 mg/kg i.p., test 30 min post dose
[4] = 5 mg/kg i.p., test 15 min post dose

Row | SMILES | CC50 +/− SEM [1, 3] [mA] | change in vivo at 50 mg/kg [1] [%] | CC50 +/− SEM [1, 4] [mA] | change in vivo at 5 mg/kg [1] [%] | other results
1 | C=C(C)[C@@H]1CCC(C)=C[C@H]1c1c(O)cc(-c2cnn(CC(C)(C)O)c2)cc1O [Compound 1, (1′R,2′R)-4-(1-(2-Hydroxy-2-methylpropyl)-1H-pyrazol-4-yl)-5′-methyl-2′-(prop-1-en-2-yl)-1′,2′,3′,4′-tetrahydro-[1,1′-biphenyl]-2,6-diol] | 119.5 | 388 | – | – | % change from vehicle ([2]; 1 mg/kg i.p., 15 min post dose): 10%; CC50 +/− SEM ([2]; 1 mg/kg i.p., test 15 min post dose): 28.5 mA; % change from vehicle ([2]; 5 mg/kg i.p., 15 min post dose): 21%; CC50 +/− SEM [2, 4]: 31.5 mA; % change from vehicle ([2]; 50 mg/kg i.p., 30 min post dose): 213%; CC50 +/− SEM [2, 3]: 81.5 mA
2 | C=C(C)[C@@H]1CCC(C)=C[C@H]1c1c(O)cc(-c2cnn(CCO)c2)cc1O [Compound 2, (1′R,2′R)-4-(1-(2-Hydroxyethyl)-1H-pyrazol-4-yl)-5′-methyl-2′-(prop-1-en-2-yl)-1′,2′,3′,4′-tetrahydro-[1,1′-biphenyl]-2,6-diol] | <35.0 | < 40 | 32.5 | 30 | –
3 | C=C(C)[C@@H]1CCC(C)=C[C@H]1c1c(O)cc(-c2cn(C)nc2C)cc1O [Compound 3, (1′R,2′R)-4-(1,3-Dimethyl-1H-pyrazol-4-yl)-5′-methyl-2′-(prop-1-en-2-yl)-1′,2′,3′,4′-tetrahydro-[1,1′-biphenyl]-2,6-diol] | 62.5 | 150 | 27.5 | 10 | –
4 | C=C(C)[C@@H]1CCC(C)=C[C@H]1c1c(O)cc(-c2cn(C)nn2)cc1O [Compound 4, (1′R,2′R)-5′-Methyl-4-(1-methyl-1H-1,2,3-triazol-4-yl)-2′-(prop-1-en-2-yl)-1′,2′,3′,4′-tetrahydro-[1, 1′-biphenyl]-2,6-diol] | 70.5 | 213 | 28.3 | 26 | –
5 | C=C(C)[C@@H]1CCC(C)=C[C@H]1c1c(O)cc(-c2cnn(CCO)c2C)cc1O [Compound 5, (1′R,2′R)-4-(1-(2-Hydroxyethyl)-5-methyl-1H-pyrazol-4-yl)-5′-methyl-2′-(prop-1-en-2-yl)-1′,2′,3′,4′-tetrahydro-[1,1′-biphenyl]-2,6-diol] | 60.5 | 169 | – | – | –
6 | C=C(C)[C@@H]1CCC(C)=C[C@H]1c1c(O)cc(-c2cnn(CCN(C)C)c2)cc1O [Compound 6, (1′R,2′R)-4-(1-(2-(Dimethylamino)ethyl)-1H-pyrazol-4-yl)-5′-methyl-2′-(prop-1-en-2-yl)-1′,2′,3′,4′-tetrahydro-[1,1′-biphenyl]-2,6-diol] | <43 | < 76 | – | – | –
7 | C=C(C)[C@@H]1CCC(C)=C[C@H]1c1c(O)cc(-c2ccc(OC)nc2)cc1O [Compound 12, (1′R,2′R)-4-(6-Methoxypyridin-3-yl)-5′-methyl-2′-(prop-1-en-2-yl)-1′,2′,3′,4′-tetrahydro-[1,1′-biphenyl]-2,6-diol] | >131 | > 394 | 25.0 | -6 | convulsions observed ([1]; 50 mg/kg, CC50 not reached): no animals had any convulsions
8 | C=C(C)[C@@H]1CCC(C)=C[C@H]1c1c(O)cc(-c2cnn(CCN3CCOCC3)c2)cc1O [Compound 13, (1′R,2′R)-5′-Methyl-4-(1-(2-morpholinoethyl)-1H-pyrazol-4-yl)-2′-(prop-1-en-2-yl)-1′,2′,3′,4′-tetrahydro-[1,1′-biphenyl]-2,6-diol] | 37.2 | 58 | 25.0 | 6 | –
9 | C=C(C)[C@@H]1CCC(C)=C[C@H]1c1c(O)cc(-c2cnn(CC(C)O)c2)cc1O (stereo partly drawn) [Compound 22, (1′R,2′R)-4-(1-(2-Hydroxypropyl)-1H-pyrazol-4-yl)-5′-methyl-2′-(prop-1-en-2-yl)-1′,2′,3′,4′-tetrahydro-[1,1′-biphenyl]-2,6-diol] | 66.0 | 149 | 33.0 | 25 | –
10 | C=C(C)[C@@H]1CCC(C)=C[C@H]1c1c(O)cc(-n2cnc(C)n2)cc1O [Compound 26, (1′R,2′R)-5′-Methyl-4-(3-methyl-1H-1,2,4-triazol-1-yl)-2′-(prop-1-en-2-yl)-1′,2′,3′,4′-tetrahydro-[1,1′-biphenyl]-2,6-diol] | 75.0 | 233 | – | – | –
11 | C=C(C)[C@@H]1CCC(C)=C[C@H]1c1c(O)cc(-c2cn(C)cn2)cc1O [Compound 28, (1′R,2′R)-5′-Methyl-4-(1-methyl-1H-imidazol-4-yl)-2′-(prop-1-en-2-yl)-1′,2′,3′,4′-tetrahydro-[1,1′-biphenyl]-2,6-diol] | 35.5 | 58 | 25.0 | 11 | –
12 | C=C(C)[C@@H]1CCC(C)=C[C@H]1c1c(O)cc(-c2ncn(C)n2)cc1O [Compound 33, (1′R,2′R)-5′-Methyl-4-(1-methyl-1H-1,2,4-triazol-3-yl)-2′-(prop-1-en-2-yl)-1′,2′,3′,4′-tetrahydro-[1, 1′-biphenyl]-2,6-diol] | 53.5 | 138 | – | – | –
13 | CC1=C[C@@H](c2c(O)cc(-c3cnn(C)c3)cc2O)[C@H](C(C)C)CC1 [Compound 36, (1′S,2′S)-2′-Isopropyl-5′-methyl-4-(1-methyl-1H-pyrazol-4-yl)-1′,2′,3′,4′-tetrahydro-[1,1′-biphenyl]-2,6-diol] | 70.5 | 176 | 29.0 | 14 | CC50 value compared to vehicle ([1]; 5 and 50 mg/kg i.p., between 15 and 30 minutes before the test): statistically significant
14 | C=C(C)[C@@H]1CCC(C)=C[C@H]1c1c(O)cc(-c2cnn(C3COC3)c2)cc1O [Compound 38, (1′R,2′R)-5′-Methyl-4-(1-(oxetan-3-yl)-1H-pyrazol-4-yl)-2′-(prop-1-en-2-yl)-11,2′,3′,4′-tetrahydro-[1, 1′-biphenyl]-2,6-diol] | 79.5 | 200 | – | – | –
15 | C=C(C)[C@@H]1CCC(C)=C[C@H]1c1c(O)cc(-c2ccn(C)c(=O)c2)cc1O [Compound 42, 4-((1′R,2′R)-2,6-dihydroxy-5′-methyl-2′-(prop-1-en-2-yl)-1′,2′,3′,4′-tetrahydro-[1,1′-biphenyl]-4-yl)-1-methylpyridin-2(1H)-one] | 67.5 | 132 | – | – | –
16 | C=C(C)[C@@H]1CCC(C)=C[C@H]1c1c(O)cc(-c2cccnc2OC)cc1O [Compound 43, (1′R,2′R)-4-(2-methoxypyridin-3-yl)-5′-methyl-2′-(prop-1-en-2-yl)-1′,2′,3′,4′-tetrahydro-[1,1′-biphenyl]-2,6-diol] | 58.2 | 96 | – | – | –
17 | C=C(C)[C@@H]1CCC(C)=C[C@H]1c1c(O)cc(N(C)c2cccnc2)cc1O [Compound 46, (1′R,2′R)-5′-Methyl-4-(methyl(pyridin-3-yl)amino)-2′-(prop-1-en-2-yl)-1′,2′,3′,4′-tetrahydro-[1, 1′-biphenyl]-2,6-diol] | 61.5 | 132 | – | – | –
18 | CN1C(=O)CN=C(c2ccccc2)c2cc(Cl)ccc21 [Diazepam, diazepam, reference compound] | – | – | – | – | % change from vehicle ([2]; diazepam 2.5 mg/kg i.p., 30 min post dose): 224%
